Experiments:
[1] = Cytotoxicity (CC50) in PAMs cells; type: cell-based, porcine; settings: pig
[2] = system: PRRSV; assay: IC50 against PRRSV in PAMs by immunofluorescence; type: cell-based; settings: Porcine reproductive and respiratory syndrome virus; PAMs cells
Experimental: (§1) Xn of different concentrations was added to a PAMs medium (1-30 μM), and a DMSO negative control group was set up. Cells were inoculated with PRRSV (0.01 MOI) and incubated at 37° C. for 30 h, and the cell supernatant was pipetted and discarded. The cells were fixed with 4% (volume ratio) paraformaldehyde for 15 min, permeabilized with 0.1% (volume ratio) Triton X-100 for 30 min, and washed 3 times with PBS for 3 min each time. A PRRSV N protein monoclonal antibody (2H7) at a dilution of 1:1000 was added, and the cells were incubated at 37° C. for 1 h, and washed 3 times with PBST for 3 min each time. Alexa Fluor 594 goat anti-mouse IgG at a dilution of 1:1000 was added, and the cells were incubated at 37° C. for 45 min. The nuclei were stained with DAPI for 10 min at room temperature. Three photos were recorded randomly with a Nikon A1 confocal microscope. The fluorescence intensity was measured by ImageJ software. Finally, the 50% inhibitory concentration (IC50) of Xn against PRRSV was calculated by GraphPad Prism 7.0 software, and the results were recorded.

[3] = system: PRRSV; assay: IC50 against PRRSV in Marc145 cells by indirect immunofluorescence; type: cell-based; settings: Porcine reproductive and respiratory syndrome virus
Experimental: as §1
(§2) Further, the inhibitory efficiency of Xn on PRRSV in Marc145 cells was detected by indirect immunofluorescence. […] To further determine the dose range of Xn with the anti-PRRSV activity, Marc-145 cells were treated with 5 μM, 10 μM, and 15 μM Xn respectively, and then infected with PRRSV (0.01 MOI).

[4] = system: PRRSV; assay: PRRSV replication in Marc-145 cells (TCID50, ORF7 mRNA, CPE/IFA, Western blot); type: cell-based, porcine reproductive and respiratory syndrome virus
Experimental: (§3) Marc-145 cells were cultured in a 96-well plate. When the cell confluence reached 70%, a nutrient solution was pipetted and discarded, and the cell surface was washed 3 times with PBS. Ten-fold serially diluted PRRSV was added to the cells and the cells were incubated at 37° C. for 1 h. The medium was replaced with fresh 2% FBS-DMEM. Virus titers were determined 5 days post-inoculation (dpi) using end-point dilution analysis. The 50% cell infectious dose (TCID50) was calculated by the Reed-Muench method.
(§4) Cellular RNAs were extracted following the operation instructions of an OMEGA RNA virus extraction kit. […] Relative fluorescence quantification was performed after reverse transcription, and the primer sequences used were as follows:
(§5) According to the method of 2-ΔΔCt, the relative content of mRNA of each gene in a sample was calculated with a CT value.
as §2

[5] = system: IL-1β, IL-6, IL-8 and TNF-α mRNA; assay: PRRSV- or LPS-induced inflammatory reaction in Marc-145 cells (qRT-PCR); type: cell-based
Experimental: as §4, §5
(§6) Marc-145 cells and PAM cells were inoculated with 0.1 MOI PRRSV and incubated at 37° C. for 1 h. The nutrient solution was replaced with DMEM-2% FBS containing Xn (or DMSO), and 24 h post infection, cellular RNAs were extracted. A positive control group was set up: Marc-145 cells and PAMs were treated with 10 μg/mL LPS (or DMEM) for 1 h; the cell surface was washed 3 times with PBS; 2% FBS-DMEM containing Xn (or DMSO) was added; and after 6 h, the cells were collected, RNAs were extracted, and the mRNA levels of IL-1β, IL-6, IL-8 and TNF-α were detected by qRT-PCR. The results are shown in FIG. 6 (Marc-145) and FIG. 7 (PAM cells).

[6] = system: PRRSV; assay: Stage experiment of drug (pre-, co-, post-treatment) in PAMs; type: cell-based, porcine reproductive and respiratory syndrome virus; settings: 24 hpi
Experimental: Xn treatment time and PRRSV infection time are shown on the timeline in FIG. 5A. PAMs were inoculated into a 24-well plate, and after complete sedimentation, the time was set as −1 h. 10 μM Xn was added to a pretreatment group (Pre) at −1 h; and at 0 h; cells were inoculated 0.1 moi PRRSV and incubated at 37° C. for 1 h; the virus-containing cell culture was replaced with 2% FBS-DMEM; and the cells were cultured at 37° C. for 24 h. Xn was added to the cells in a co-treatment group (Co) at 0 h; the cells were inoculated with 0.1 moi PRRSV, and incubated at 37° C. for 1 h; the virus-containing cell culture was replaced with 2% FBS-DMEM; and the cells were cultured at 37° C. for 24 h. A post-treatment group (Post) was inoculated with 0.1 moi PRRSV at 0 h; the culture was discarded at 1 h and replaced with 2% FBS-DMEM containing 10 μM Xn; and the cells were cultured at 37° C. for 24 h.
PAMs were treated with Xn before, during and after PRRSV infection (FIG. 5A). Cell samples were collected at 24 hpi for detection of PRRSV N protein and PRRSV ORF7 mRNA by Western blot and qRT-PCR respectively, and the cell supernatant was collected for virus titer determination.

[7] = system: IL-1β, IL-6, IL-8 and TNF-α mRNA; assay: PRRSV- or LPS-induced inflammatory reaction in PAM cells (qRT-PCR); type: cell-based, porcine
Experimental: as §4, §5, §6

[8] = system: PRRSV; assay: PRRSV replication in PAM cells (N protein, ORF7 mRNA, titer, different strains); type: cell-based, porcine reproductive and respiratory syndrome virus
Experimental: as §3, §4
The results are shown in FIGS. 4A-D. In PAM, Xn could inhibit the replication of different genetic subtypes of PRRSV strains in the viral ORF7 gene and protein levels, and reduce the viral infection titer.

[9] = Cytotoxicity to Marc-145 cells (CCK8, CC50); type: cell-based; settings: African green monkey, Marc-145 cells; Marc145 cells, CCK8 cytotoxicity assay
Experimental: (§7) Cell viability was detected with the enhanced CCK8 kit. The concentration (CC50) at which Xn was cytotoxic to 50% of the cells was calculated using GraphPad Prism 7.0 software. DMSO was used as a negative control.
as §2

[10] = system: Marc-145 cells; assay: Cytotoxicity to Marc-145 cells (CCK8, CC50); type: cell-based
Experimental: as §7, §2

[11] = system: PRRSV; assay: Natural product drug library screening, PRRSV infection of Marc-145 cells; type: cell-based, porcine reproductive and respiratory syndrome virus; settings: for inhibitory effects on PRRSV: second round hits
Experimental: Marc-145 cells were treated with 10 μM of natural products and then infected with PRRSV. In the first round of screening, 24 compounds (6.21%) had no obvious cytotoxicity to Marc-145 cells and could reduce PRRSV-induced CPE by 50% (FIG. 1A).

[12] = system: PRRSV; assay: Anti-PRRSV activity of xanthohumol derivatives on Marc-145; type: cell-based, porcine reproductive and respiratory syndrome virus
[13] = system: PRRSV BB0907 strain; assay: Piglet treatment experiment after PRRSV infection; type: in vivo, piglets; settings: for virus level in the serum vs virus-infected positive control group: 4-14 dpi
[14] = Marc-145, 5, 10, 15 μM Xn, 0.01 MOI, 24, 36, 48 hpi
[15] = PAM cells, dose-dependent manner

Structure (SMILES): COc1cc(O)c(CC=C(C)C)c(O)c1C(=O)/C=C/c1ccc(O)cc1 [Xn, xanthohumol]
- CC50 [1]: 42.6 µM
- IC50 [2]: 7.05 µM
- IC50 [3]: 2.37 µM
- replication of the three PRRSV strains (Western blot) ([4]; Marc-145): effectively reduce
- number of infected cells (CPE and IFA) vs negative control group ([4]; Marc-145, 48 hpi): significantly less
- ORF7 mRNA level [4, 14]: dose-dependent decrease
- viral titers (TCID50 of PRRSV) [4, 14]: dose-dependent decrease
- mRNA expressions of IL-1β, IL-6, IL-8 and TNF-α induced by LPS ([5]; Marc-145, 10 μg/mL LPS, 6 h, dose-dependent): effectively reduce
- mRNA expressions of IL-1β, IL-6, IL-8 and TNF-α induced by PRRSV ([5]; Marc-145, 0.1 MOI PRRSV, 24 h post infection, dose-dependent): effectively reduce
- intracellular inflammatory factors, Xn control treatment ([5]; Marc-145, Xn alone): did not cause changes
- level of PRRSV replication (N protein, ORF7 mRNA, virus titer) ([6]; 10 μM Xn co-treatment (Co)): inhibited the virus to a lower degree
- level of PRRSV replication (N protein, ORF7 mRNA, virus titer) ([6]; 10 μM Xn post virus infection (Post)): significantly reduced
- level of PRRSV replication (N protein, ORF7 mRNA, virus titer) ([6]; 10 μM Xn pretreatment (Pre)): inhibited the virus to a lower degree
- mRNA expressions of IL-1β, IL-6, IL-8 and TNF-α induced by LPS ([7]; 10 μg/mL LPS, 6 h, dose-dependent): effectively reduce
- mRNA expressions of IL-1β, IL-6, IL-8 and TNF-α induced by PRRSV ([7]; 0.1 MOI PRRSV, 24 h post infection, dose-dependent): effectively reduce
- intracellular inflammatory factors, Xn control treatment ([7]; Xn alone): did not cause changes
- replication of different genetic subtypes of PRRSV strains (ORF7 gene and protein levels) ([8]; PAM): inhibit
- level of PRRSV N protein [8, 15]: decreased
- level of viral mRNA [8, 15]: decreased
- viral infection titer ([8]; PAM, different genetic subtypes of PRRSV strains): reduce
- CC50 at 48 h [9]: 62.5 µM
- CC50, comparison among the 5 screened compounds ([10]; Marc-145 cells): highest
- IC50, comparison among the 5 screened compounds [11]: lowest
- selectivity index, comparison among the 5 screened compounds [11]: highest
- inhibitory effects on PRRSV [11]: dose-dependent inhibitory effects

Structure (SMILES): COc1cc(OC)c(C(=O)/C=C/c2ccc(O)cc2)c(OC)c1 [Xn-2]
- anti-PRRSV activity on Marc-145 ([12]; 0-50 uM): inhibitory effects

Structure (SMILES): COc1cc(O)c(C(=O)/C=C/c2ccc(O)cc2)c(OC)c1 [Xn-4]
- anti-PRRSV activity on Marc-145 ([12]; 0-50 uM): inhibitory effects
- anti-PRRSV effect, ranking among the three compounds ([12]; 0-50 uM, Marc-145): best effect
- concentration with an obvious antiviral effect ([12]; Marc-145): 15 µM
- pigs died ([13]; 10 mg/kg intramuscular, 5 per group, death at 10 dpi): 1
- rectal temperature of the piglets ([13]; 10 mg/kg intramuscular, 14 days post infection): increased
- virus level in the serum vs virus-infected positive control group ([13]; 10 mg/kg, P<0.05): significantly lower
- lung pathological change scores vs positive control group ([13]; 10 mg/kg, 14 dpi, P<0.05): significantly lower
- clinical fever and clinical symptoms ([13]; 20 mg/kg intramuscular, days 0-14): no clinical fever or obvious clinical symptoms
- survival ([13]; 20 mg/kg intramuscular, during the experiment): all were healthy and alive
- copy number of the PRRSV genome in the nasal swabs vs positive control group ([13]; 20 mg/kg, 4-10 dpi): significantly lower
- virus level in the serum vs virus-infected positive control group ([13]; 20 mg/kg, P<0.05): significantly lower
- PRRSV viral load in the lungs vs control group ([13]; 20 mg/kg, 14 dpi, P<0.05): significantly lower
- lung pathological change scores vs positive control group ([13]; 20 mg/kg, 14 dpi, P<0.05): significantly lower
- inflammatory factors IL-1β, IL-6, IL-8 and TNF-α mRNA in the lung tissue ([13]; 5, 10, 20 mg/kg, qRT-PCR): decreased in a dose-dependent manner

Structure (SMILES): COc1cc(O)cc(O)c1C(=O)/C=C/c1cccc([N+](=O)[O-])c1 [Xn-5]
- antiviral ability ([12]; low concentrations): did not have antiviral ability
- cytotoxicity ([10]; low concentrations): highly cytotoxic

Structure (SMILES): Oc1c(Cl)cc(Cl)c2cccnc12 [chloroxine, reference compound]
- inhibitory effects on PRRSV [11]: dose-dependent inhibitory effects

Structure (SMILES): COc1cc(/C=C/C(=O)CC(=O)/C=C/c2ccc(O)c(OC)c2)ccc1O [curcumin]
- inhibitory effects on PRRSV [11]: dose-dependent inhibitory effects

Source: US20240091172A1, “DRUG FOR ANTAGONIZING REPLICATION OF PORCINE REPRODUCTIVE AND RESPIRATORY SYNDROME VIRUS AND APPLICATION THEREOF” (NANJING AGRICULTURAL UNIVERSITY, priority 2019, published 2024)
